From patent US7045513B1, “DHEA composition and method” (priority 1999, dated 2006)

What was measured:
[1] = 14-day stress study of DHEA forms I and II, monitored by XRPD; type: physicochemical; settings: for Stability (summary): ambient conditions and heat at non-saturating humidity; for Stability to solid form conversion: ambient temperature and 50° C., two weeks, RH as high as 84%
Protocol: Little weight gain (<0.8%) is observed in these samples. (Weight losses observed at 50° C. could be due to loss of residual solvent, sublimation of sample, and/or thermal degradation.)
X-Ray Powder Diffraction (XRPD). XRPD analyses were carried out on a Siemens D-500 X-ray Powder Diffractometer-Kristaloflex or a Shimadzu XRD-6000 X-ray powder diffractometer using Cu Kα radiation (1.5406 Å).
The Siemens instrument was equipped with an IBM-compatible interface and utilized DIFFRAC AT software (SOCABIM, 1994). Slits I and II were set at 1° and the radiation was electronically filtered by a Kevex Psi Peltier cooled silicon detector with slits III at 1° and IV at 0.15°. A continuous theta-two theta scan at 6°/min (0.4 sec/0.04° step) from 4 to 40°2θ was used. A silicon standard was analyzed each day to check the instrument alignment. Each sample was prepared by pressing a small amount of the powder onto a zero-background quartz-in-aluminum sample holder.
The Shimadzu instrument was equipped with a fine-focus X-ray tube. The tube power was set at 40 kV, 40 mA. The divergence and scattering slits were set at 1° and the receiving slit was set at 0.15 mm. Diffracted radiation was detected by an NaI scintillation detector. A theta-two theta continuous scan at 3°/min (0.4 sec/0.02° step) from 4 to 40°2θ was used. A silicon standard was analyzed each day to check the instrument alignment, and an alumina standard was analyzed each day to check the X-ray tube output. Each sample was prepared for analysis by pressing it with a spatula onto a glass or quartz sample holder.

[2] = Solid form stability of form I after 1, 2, 3 and 6 months, by 13C-SSNMR; type: physicochemical
Protocol: Solid State NMR Method (SSNMR). SSNMR spectra were obtained on a General Electric Omega PSG, 100 MHz spectrometer using about 50 mg of sample in a 5-mm diameter zirconia rotor. High-power proton decoupling and cross-polarization with magic-angle spinning at approximately 5 kHz were used. The magic angle was adjusted using the Br signal of KBr by detecting the side bands as described by Frye and Maciel, 1982. The chemical shifts were referenced externally to the CH resonance of adamantane at 29.50 ppm. Curve fitting of selected peaks for integration was performed as described by MacDonald (1980). The following peaks were used to measure forms I, II and VI: sum of peaks at 118.8 and 120.3 ppm (form I), peak at 119.8 ppm (form II), and peak at 118.5 ppm (form VI).

[3] = Single dose pharmacokinetic study of orally administered DHEA formulations; type: in vivo, human; settings: conclusion drawn from the single dose study
Protocol: Example 2 describes a study in which 34 healthy postmenopausal women were administered orally one of three formulations of DHEA, each prepared from commercially available DHEA, in capsular form. The formulations were administered in single dosages of four opaque, size 2 capsules, each capsules containing 50 mg DHEA, 152 mg lactose (169 mg for formulation 3), 108 mg corn starch, and 3 mg magnesium stearate.
Blood samples were collected prior to and at various times after administration, and the levels of DHEA and DHEA-S were measured by immunoassay. […]
AUC (area under curve) is an indicator of extent of absorption; Cmax and Tmax are indicators of rate of absorption. Serum DHEA concentrations for all samples were above the assay limit of quantification. […]
DHEA levels were determined by radioimmunoassay (RIA) at Endocrine Sciences Inc., after non-polar solvent extraction. […] Internal assay controls were monitored via control charts. […]. […]
Adjusted serum levels were calculated by subtracting baseline (average of −0.5 hr and 0 hr serum levels). […] For DHEA and DHEA-S, the peak serum concentration (Cmax) and time to peak concentration (Tmax) were assessed from the concentration-time data. […]

[4] = 25° C. (ambient temperature), 95% RH

SMILES | Final Form (by XRPD), 14 days [1, 4] | Wt change, % (14 days) ([1]; 25° C., 58% RH, 14 days) | Wt change, % (14 days) ([1]; 25° C., 75% RH, 14 days) | Wt change, % (14 days) ([1]; 25° C., 84% RH, 14 days) | Wt change, % (14 days) ([1]; 25° C., 95% RH, 14 days) | Wt change, % (14 days) ([1]; 50° C., 58% RH, 14 days) | Wt change, % (14 days) ([1]; 50° C., 75% RH, 14 days) | Wt change, % (14 days) ([1]; 50° C., 84% RH, 14 days) | Final Form (by XRPD), 14 days ([1]; 50° C., 95% RH) | Wt change, % (14 days) ([1]; 50° C., 95% RH, 14 days) | Stability (summary) [1] | Stability to solid form conversion [1] | Overall stability, form I compared with form II ([1]; summary of the stability studies) | Final Form (by 13C-SSNMR), 1, 2, 3, and 6 months ([2]; 25° C., 58% RH) | Final Form (by 13C-SSNMR), 1, 2, 3, and 6 months ([2]; 40° C. (footnote b), 75% RH) | Bioavailability when administered orally [3] | Final Form (by XRPD), 14 days ([1]; 50° C., 75% RH) | Final Form (by XRPD), 14 days ([1]; 50° C., 84% RH) | Solid form conversion ([1]; 50°, RH of 75% or greater, 14 days)
C[C@]12CC[C@H](O)CC1=CC[C@@H]1[C@@H]2CC[C@]2(C)C(=O)CC[C@@H]12 [Form I, dehydroepiandrosterone] | stable | −0.6% | +0.3% | +0.1% | +0.2% | −1% | −3% | −2% | converted to S2 | +1% | stable | stable to solid form conversion | greater overall stability | remained stable to solid form conversion | remained stable to solid form conversion | high bioavailability | – | – | –
C[C@]12CC[C@H](O)CC1=CC[C@@H]1[C@@H]2CC[C@]2(C)C(=O)CC[C@@H]12 [Form II, dehydroepiandrosterone] | converted to S2 | 0% | −0.3% | +0.2% | +5% | −1% | −2% | −0.3% | II + S1 | +1% | stable | stable to solid form conversion | – | – | – | high bioavailability | II + S1 | II + S1 | partially converted to S1
